Test results: the NIST ThermoML archive (doi:10.1007/s10765-008-0535-5)

Experiment: molar heat capacity at constant volume
Details: Liquid, Vacuum adiabatic calorimetry

FCF [difluoromethane]
Details | molar heat capacity at constant volume [J/K/mol]
289.15 K, 5835 kPa | 49.79
289.15 K, 29338 kPa | 50.46
289.15 K, 29446 kPa | 50.72
289.15 K, 29581 kPa | 51.09
290.15 K, 6570 kPa | 50.62
290.15 K, 6631 kPa | 50.93
291.15 K, 7365 kPa | 51.14
291.15 K, 7428 kPa | 51.19
292.15 K, 8161 kPa | 51.24
292.15 K, 8224 kPa | 51.14
293.15 K, 8956 kPa | 51.4
293.15 K, 9019 kPa | 51.71
294.15 K, 9752 kPa | 51.66
294.15 K, 9815 kPa | 50.83
295.15 K, 10546 kPa | 51.19
295.15 K, 10610 kPa | 51.56
296.15 K, 11341 kPa | 51.19
296.15 K, 11405 kPa | 51.5
297.15 K, 12135 kPa | 51.61
297.15 K, 12199 kPa | 51.35
298.15 K, 12929 kPa | 51.5
298.15 K, 12993 kPa | 51.92
299.15 K, 13723 kPa | 51.66
299.15 K, 13787 kPa | 51.82
300.15 K, 14517 kPa | 51.66
300.15 K, 14581 kPa | 52.08
301.15 K, 15309 kPa | 52.34
301.15 K, 15374 kPa | 51.92
302.15 K, 16102 kPa | 52.08
302.15 K, 16167 kPa | 52.23
303.15 K, 16894 kPa | 52.13
303.15 K, 16960 kPa | 52.49
304.15 K, 17685 kPa | 52.13
304.15 K, 17752 kPa | 52.54
305.15 K, 18476 kPa | 52.75
305.15 K, 18543 kPa | 52.6
306.15 K, 19267 kPa | 52.75
306.15 K, 19335 kPa | 52.8
307.15 K, 20125 kPa | 52.49
308.15 K, 20848 kPa | 52.91
308.15 K, 20915 kPa | 52.8
309.15 K, 21639 kPa | 52.7
309.15 K, 21704 kPa | 53.32
310.15 K, 22429 kPa | 52.86
310.15 K, 22492 kPa | 53.12
311.15 K, 23217 kPa | 53.17
311.15 K, 23281 kPa | 53.69
312.15 K, 24005 kPa | 53.64
312.15 K, 24068 kPa | 53.79
313.15 K, 24793 kPa | 53.53
313.15 K, 24855 kPa | 53.79
314.15 K, 25579 kPa | 53.79
314.15 K, 25641 kPa | 53.43
315.15 K, 26364 kPa | 53.58
315.15 K, 26427 kPa | 54
316.15 K, 27149 kPa | 53.53
316.15 K, 27212 kPa | 54.68
317.15 K, 27934 kPa | 54.42
317.15 K, 27996 kPa | 54.21
318.15 K, 28719 kPa | 54.1
318.15 K, 28779 kPa | 54.78
